# Data as given in PMC6823370, “A novel nucleoside rescue metabolic pathway may be responsible for therapeutic effect of orally administered cordycepin” (Scientific Reports, 2019).
# What was measured:
# [1] = Liver microsomal stability, rat liver microsomes; assay type: in vitro ADME; conditions: for Fh, parallel-tube model / Fh, well-stirred model / CLint scaled at 1 µM: rat liver microsome, pentostatin −; for CLint scaled at 1 µM: rat, liver microsomes
# Method: (§1) Human and rat liver microsomes were used in the experiment following previously reported methods[49],[50]. Microsomes were used at 0.5 mg protein/mL and cordycepin was tested at 1 µM. […] The reaction mixture was incubated in the shaking incubator at 37 °C for 30 min with sampling every 10 min. The results of intrinsic clearance and the fraction that escapes hepatic metabolism (by both well-stirred and parallel-tube models) were calculated by previously reported equations and physiological parameters[50]–[52]. The experiments were performed in triplicates.
# (§2) Samples from studies of plasma stability, protein binding, biorelevant solubility and liver microsomal stability were subjected to liquid-liquid extraction and HPLC-UV analysis. To 100 µL of sample, internal standard (2′-deoxyadenosine) was spiked at 10 µg/mL and 300 µL of 0.1 M NaOH was added. Extraction solvent (3 mL) of ethyl acetate-isopropyl alcohol (85:15, v/v) was added and vortex-mixed for 10 min. Samples were then centrifuged at 1160 g for 5 min and the supernatant was transferred and dried under N2 gas. Dried samples were reconstituted with 100 uL of deionised distilled water (DDW) and 40 µL was injected into the HPLC-UV. The HPLC-UV setup was adopted from a validated method[22] with addition of a gradient scheme to elute the impurities from samples. Waters Alliance 2695 module with Waters 996 PDA detector was used for the HPLC-UV system with Capcell Pak C18 3 µm, 4.6 × 150 mm as the stationary phase. Mobile phase was a mixture of acetonitrile (A) and DDW (B) at flow rate 0.8 mL/min with a gradient scheme of the following: 0–9 min, B 94%; 9–14 min, B decreased to 20%; 14–24 min, B 20%; 24–26 min, B increased to 94%; and 26–35 min, B 94%. Calibration curves were constructed at a range of 10 – 20000 ng/mL and chromatograms were obtained at 259 nm of wavelength.
# [2] = Plasma protein binding, ultrafiltration, rat plasma; assay type: in vitro ADME; conditions: read-out: fraction unbound (Fub) in plasma
# Method: Cordycepin was spiked into the plasma to give concentrations of 100, 500, 1000 and 5000 ng/mL, and the samples (300 µL) were incubated in the shaking incubator at 250 rpm and 37 °C for 1 h. Following incubation, 100 µL was withdrawn and analysed for Ct. The remaining sample was transferred to a filter device (Amicon Ultra-0.5 Centrifugal Filter Units, MWCO 3000, Merck Millipore, Cork, Ireland) and was centrifuged at 14,000 g for 10 min at room temperature. Filtrate was collected and analysed for Cf. The fraction unbound in plasma (Fub) was calculated by the equation: Cf/Ct × 100 = Fub. Non-specific binding of cordycepin to the filter device was tested at the same concentration range using phosphate buffered saline (PBS) instead of plasma. Experiments were conducted in quadruplicates.
# Samples from studies of plasma stability, protein binding, biorelevant solubility and liver microsomal stability were subjected to liquid-liquid extraction and HPLC-UV analysis. To 100 µL of sample, internal standard (2′-deoxyadenosine) was spiked at 10 µg/mL and 300 µL of 0.1 M NaOH was added. Extraction solvent (3 mL) of ethyl acetate-isopropyl alcohol (85:15, v/v) was added and vortex-mixed for 10 min. Samples were then centrifuged at 1160 g for 5 min and the supernatant was transferred and dried under N2 gas. […]
# [3] = Plasma stability of cordycepin in rat plasma; assay type: in vitro ADME; conditions: read-out: ex vivo stability half-life (t1/2) in plasma
# Method: (§3) Stability of cordycepin in plasma was tested using human and rat plasma by following a previously reported method with minor modifications. Cordycepin was spiked into the plasma at 10 µM and the samples were incubated in a shaking incubator (Thermo Scientific MaxQ4000, Waltham, MA, USA) at 37 °C and shaken at 250 rpm. Samples (100 µL) were withdrawn at predetermined time points. […] The experiments were performed in triplicates.
# as §2, with “Mobile phase was a mixture of acetonitrile (A) and DDW (B) at flow rate 0.8 mL/min with a gradient scheme of the following: 0–9 min, B 94%; 9–14 min, B decreased to 20%; 14–24 min, B 20%; 24–26 min, B increased to 94%; and 26–35 min, B 94%. Calibration curves were constructed at a range of 10 – 20000 ng/mL and chromatograms were obtained at 259 nm of wavelength.” left out
# [4] = Liver microsomal stability, human liver microsomes; assay type: in vitro ADME; conditions: human liver microsome, pentostatin −; for CLint scaled at 1 µM: human, liver microsomes
# Method: as §1, §2
# [5] = Plasma stability of cordycepin in human plasma; assay type: in vitro ADME; conditions: read-out: ex vivo stability half-life (t1/2) in plasma
# Method: as §3
# as §2, with “Mobile phase was a mixture of acetonitrile (A) and DDW (B) at flow rate 0.8 mL/min with a gradient scheme of the following: 0–9 min, B 94%; 9–14 min, B decreased to 20%; 14–24 min, B 20%; 24–26 min, B increased to 94%; and 26–35 min, B 94%. Calibration curves were constructed at a range of 10 – 20000 ng/mL and chromatograms were obtained at 259 nm of wavelength.” left out
# [6] = Caco-2 permeability; assay type: in vitro ADME; conditions: human, Caco-2; read-out: apparent permeability coefficient (Papp), A to B
# Method: (§4) Caco-2 permeability assays were conducted following previously reported methods with 21-day maintenance on the Corning 24-well Transwell® (Fisher Scientific, Loughborough, UK)[48]. […] Both directions of apical-to-basolateral and basolateral-to-apical were tested. […] The experiments were conducted in triplicates.
# (§5) Samples from Caco-2 permeability, in vitro determination of CordyTP formation and in vivo experiments were subjected to protein precipitation followed by LC-MS/MS analysis. To 50 µL of rat plasma sample, 150 µL of internal standard solution (1.67 µg/mL 2-chloroadenosine in methanol) was added. The samples were then vortex-mixed for 10 s and were centrifuged for 3 min at 17949 g. Supernatant (20 µL) was collected and diluted 10-fold with DDW before injection into the LC-MS/MS for analysis of cordycepin and 3′-deoxyinosine. For analysis of CordyTP, the supernatant was filtered using filter tubes mentioned above and injected without dilution. Tissue samples were homogenised using Bullet Blender Gold (Next Advance, Inc., Troy, NY) in methanol (1:3 w/v) and centrifuged for 3 min at 17949 g. The supernatant was filtered and injected for analysis of CordyTP or diluted 10-fold with DDW for analysis of cordycepin and 3′-deoxyinosine. The LC-MS/MS system was a API4000 QTrap (AB Sciex, Warrington, UK) equipped with HPLC setup of SCL10Avp controller, LC10ADvp pump and SILHTC autosampler (Shimadzu, Milton Keynes, UK). Three different methods were utilised for each compound and multiple reaction monitoring parameters of the MS/MS conditions are shown in Table 1. The HPLC conditions including stationary phases and specific mass spectrometry parameters are shown in Supplementary Information 2. The LC-MS/MS method for cordycepin was fully validated in terms of accuracy, precision, sensitivity, selectivity, linearity and sample storage stability in accordance with the Guidance for Industry, Bioanalytical Method Validation, (2018) published by the US FDA (refer to Supplementary Information 3 for validation procedures and results)[53].
# [7] = test system: Caco-2 cells; test: Caco-2 permeability; assay type: in vitro ADME
# Method: as §4, §5
# [8] = parameters: method as in PMID 28560504; conditions: previously reported; cited from earlier work
# [9] = text summary over rat and human liver microsomes, without pentostatin
smiles,measurement,setting,value
"Nc1ncnc2c1ncn2[C@@H]1O[C@H](CO)C[C@H]1O [cordycepin, 3′-deoxyadenosine]","Fh, parallel-tube model",[1]; NADPH +,0.1 ± 0.0%
same,"Fh, well-stirred model",[1]; NADPH +,12.4 ± 0.9%
same,"Fh, parallel-tube model",[1]; NADPH −,0.1 ± 0.1%
same,"Fh, well-stirred model",[1]; NADPH −,12.5 ± 1.5%
same,CLint scaled at 1 µM,[1]; NADPH +,392 ± 31.3 mL/min/kg
same,CLint scaled at 1 µM,[1]; NADPH −,390 ± 51.4 mL/min/kg
same,"Fh calculated from CLint, parallel-tube model",[1]; [9],~0%
same,"Fh calculated from CLint, well-stirred model",[1]; [9],10–13%
same,fraction unbound at 1 h,[2],> 0.8
same,half-life at 10 µM,[3],25 ± 0.7 min
same,"Fh, parallel-tube model",[4]; NADPH +,0.0 ± 0.0%
same,"Fh, well-stirred model",[4]; NADPH +,10.3 ± 0.7%
same,"Fh, parallel-tube model",[4]; NADPH −,0.0 ± 0.0%
same,"Fh, well-stirred model",[4]; NADPH −,10.4 ± 0.3%
same,CLint scaled at 1 µM,[4]; NADPH +,181 ± 13.9 mL/min/kg
same,CLint scaled at 1 µM,[4]; NADPH −,179 ± 5.3 mL/min/kg
same,half-life at 10 µM,[5],25.8 ± 4 min
same,"Papp A→B at 120 min, 200 µM",[6],0.11 ± 0.01 ×10⁻⁶ cm/s
same,cordycepin remaining in donor chamber at 120 min,[7]; applied to apical side with pentostatin,remained stable
same,cordycepin remaining in donor chamber at 120 min,[7]; applied to apical side without pentostatin,significantly degraded
same,cordycepin remaining in donor chamber at 120 min,[7]; applied to basolateral side without pentostatin,remained stable
same,permeation of cordycepin,"[7]; cordycepin 200 µM without pentostatin, A to B and B to A",not detected
same,solubility in water,[8],5000 ± 100 µg/mL
